Results taken from US11951131B2, “Anti-SLAMF7 chimeric antigen receptors” (The United States of America, as represented by the …, priority 2018, dated 2024).

Experiments:
SLAMF7^+ MM.1S cells = test: CD107a degranulation assay; type: cell-based, human; conditions: CD4^+ and CD8^+ T cells, cultured with MM.1S versus NGFR-K562, 4 hours
Protocol: For each T cell culture that was tested, two tubes were prepared. One tube contained MM.1S cells, and the other tube contained NGFR-K562 cells. Both tubes contained CAR-transduced T cells, 1 ml of AIM V™ medium (Invitrogen) plus 5% human AB serum, a titrated concentration of an anti-CD107a antibody (eBioscience, clone eBioH4A3, ThermoFisher Scientific), and 1 μL of GOLGISTOP™ (a protein transport inhibitor containing monensin, BD Biosciences). All tubes were incubated at 37° C. for 4 hours and then stained for CD3, CD4, and CD8.

293T = test: IFN-gamma ELISA, CAR T cells with 293T target cells; type: cell-based, human; conditions: Table B-1; SLAMF7-negative cell line
Text: MM.1S is a SLAMF7^+ multiple myeloma cell line that was obtained from American Type Culture Collection (ATCC). A549 is a BCMA-negative lung cancer cell line (ATCC). TC71 is a BCMA-negative sarcoma cell line. CCRF-CEM, 293T, and A549 are SLAMF7-negative cell lines (ATCC). COL0207, HepG2, U251, Panc10.05, and TC71 are […] that were kind gifts from Dr. Steven Rosenberg, National Cancer Institute. SLAMF7-K562 are K562 cells (ATCC) which were transduced with the gene for full-length SLAMF7. SLAMF7-RPMI are RPMI8226 cells (ATCC) which were transduced with the gene for full-length SLAMF7. NGFR-K562 are K562 cells which were transduced with the gene for low-affinity nerve growth factor (Kochenderfer et al., J. Immunother., 32(7): 689-702 (2009)). All of the human samples mentioned were obtained from patients enrolled in IRB-approved clinical trials at the National Cancer Institute.
One-hundred thousand SLAMF7^+ or SLAMF7-negative target cells were combined with 100,000 CAR-transduced T cells in duplicate wells of a 96 well round bottom plate in 200 µL of AIM V™ medium (Invitrogen) plus 5% human serum. […]
The T cells columns indicate whether T cells were transduced with Luc90-CD828Z, Luc63-CD828Z, or were untransduced. The % CAR^+ in Table B-1 was determined by staining the T cells with Protein L. Except for the % CAR^+ column, all values are pg/mL of IFN-gamma. […]

Luc90-CD828Z: anti-SLAMF7 CAR (SEQ ID NO: 27): murine Luc90 scFv, human CD8a hinge and TM, CD28 and CD3ζ domains; tested as transduced T cells
CD107a upregulation (degranulation) (SLAMF7^+ MM.1S cells): degranulated | IFN-gamma, target cells 293T (293T): 37 pg/mL
